# Experimental data published in patent US20260263573A1, “Tumor Immunotherapy” (PingShan Translational Medicine Center, Shenzhen Bay …, priority 2022, published 2026).
# Test system: B16-OVA melanoma
# Test: Lung metastasis model
# Format: in vivo, mice
# Settings: day 20 after tail vein injection of B16-OVA
# Procedure: Furthermore, a lung metastasis model was selected to evaluate the prevention of lung colonization of melanoma with nanocomposites (FIG. 21a). The administration was similar to that of the tumor model, except that 5×10^5 B16-OVA cells per mouse were injected via tail vein 7 days after the end of the last administration. The mice were dissected on day 20 after injection, the lungs of the mice were removed, and the lungs were washed with Fekete's eluent (70 mL of alcohol, 10 mL of formaldehyde, 5 mL of glacial acetic acid, 15 mL of water). After decoloration, lung tumor nodules were counted. Finally, all tissues were sent to Univ company for tissue section and H&E staining analysis.
substance,measurement,value
"Ac-WMβASIINFEKL (WMXSIINFEKL; N-terminal acetyl; beta-alanine; N-terminal Acetylation and Xaa represents a ??-alanine isomer of alanine at the 3AA position; (3)..(3) Xaa is ??-alanine (beta-alanine), an isomer of Alanine) [OVA]",H&E staining of lung tissue: melanoma cell infestation,lung cells infected with melanoma cells were also found
